Values joined by “and” are separate entries in the source; they are usually repeats but may differ in a detail not shown here. Identical values can stand only once.
Columns and labels:
[1] = UV-vis absorption and emission measurements in aqueous buffer; type: physicochemical
Experimental: UV-vis absorption and emission measurements. FCP-1 stock solution in DMSO (5 mM) was prepared, aliquoted and stored at […]. For each spectroscopic measurement, a fresh aliquot was diluted to 500 μM by DMSO and further diluted with PBS containing 2 mM GSH/PEG-400 mixture (3:2, v/v) to prepare the sensing solution with 5 μM of FCP-1. The sensing solution was pre-incubated in a water bath at 37° C., and then [Cu(CH3CN)](PF6) in MeCN or other metal ions in H2O was added. The solution mixture was kept at 37° C. and taken out for UV-vis absorption or emission spectroscopic measurements in quartz cuvette at predetermined time intervals. Emission spectra were corrected using coumarin 153 as secondary emission standard (4). Photoluminescence quantum yield (PLQY) was determined using fluorescein in 0.1 M NaOH solution (0.95; λex=496 nm). FRET efficiency from the fluorescein moiety to rhodamine moiety of FCP-1 was estimated by [1−(PLQY of FCP-1/PLQY of FL-TPA)].
FCP-1 in PBS buffer containing glutathione (2 mM) and PEG-400 (40%, v/v) was evaluated. […] The first two absorption maxima corresponded to the absorption of the fluorescein moiety, as similar absorption maxima at 460 and 489 nm were found in the absorption spectra of FL-TPA (FIG. 4), whereas the lowest energy absorption at 552 nm originated from the rhodamine moiety (FIG. 4). […] Together with the significant contribution of the lower-energy fluorescence from the excitation at 450-500 nm, which is in the region of FL-TPA absorption (FIG. 6), the data support the occurrence of FRET from the fluorescein donor to the rhodamine acceptor. Using FL-TPA as a reference FRET donor compound (FIG. 7) with assumption that quenching of donor fluorescence originated only from the FRET process, the FRET efficiency in the FCP-1 cassette is estimated to be 84%.

[2] = test system: labile Cu(I) pools in HEK 293T cells; assay: Ratiometric confocal fluorescence imaging of labile Cu(I) in HEK 293T cells; type: cell-based, Human; details: CuCl2 25 μM, FL-TPA 5 μM, λex 488 nm (FIG. 15)
Experimental: (A) Confocal fluorescence microscopy images of HEK 293T cells pretreated with solvent vehicle control or varying concentrations of CuCl2 in complete medium for 18 h. The cells were then washed with PBS, incubated with FCP-1 (5 μM) in DPBS for 45 min and then imaged. (B) Average cellular ratiometric emission ratios, represented by Fgreen/Forange, as determined from imaging experiments in (A) performed in triplicate. (C) Confocal fluorescence microscopy images of HEK 293T cells pretreated with solvent vehicle control or BCS (100 μM) in complete medium for 18 h. The cells were then washed with PBS, incubated with FCP-1 (5 μM) in DPBS for 45 min and then imaged. (D) Average cellular ratiometric emission ratios of FCP-1, Fgreen/Forange, as determined from experiments in (C) performed in triplicate. […] (E) ICP-MS measurement to determine total cellular ^63Cu levels in HEK293T cells under copper supplementation and depletion relative to the control (with normalization of different cell numbers by total cellular ^31P level). Error bars denote standard derivation (SD; n=3). *p<0.05, **p<0.01, ***p<0.001, ****p<0.0001 and *****p<0.00001.
Cell culture. Following cell cultures were grown: Human embryonic kidney (HEK 293T) cells were maintained in Dulbecco's Modified Eagle Medium (DMEM) supplemented with 10 vol % fetal bovine serum (FBS), 1 vol % GlutaMax (Gibco) and 1 vol % non-essential amino acids (NEAA, Gibco). Ctrl1^+/+ and Ctr1^−/− MEF cells were maintained in DMEM with 10 vol % FBS, 1 vol % non-essential amino acids, 1 vol % sodium pyruvate and 0.1 vol % 2-mercaptoethanol or DMEM supplemented with 10 vol % FBS and 1× Penicillin-Streptomycin. Human cervical epithelial carcinoma (HeLa) was maintained in DMEM medium supplemented with 1 vol % GlutaMAX and 10 vol % FBS. […]
Confocal fluorescence microscopy imaging. For confocal fluorescence imaging experiments of HEK293T, MEF Ctr1^+/+ and Ctr1^−/− and HeLa cells, the cells were plated on 8-well Lab Tek borosilicate chambered coverglass slides (Nunc), and allowed to grow to ca. 60% confluency before performing the cell imaging experiments. […] For quantification, a threshold value was set as background and the average intensity of the whole image was measured by ImageJ. […]
Given the metal and oxidation state-selective and sensitive response of FCP-1 to Cu(I), this probe was examined for ratiometric fluorescence imaging of labile Cu(I) pools in living cells. […] The observed increases and decreases in labile Cu(I) levels upon copper supplementation (CuCl2) and copper depletion (BCS) treatments, respectively, as measured by FCP-1 imaging were supported by complementary ICP-MS measurements of total copper levels showing expected increases and decreases in the total copper pool (FIG. 9, panel C).

[3] = test system: labile Cu(I) in Ctr1^+/+ MEFs; assay: Confocal fluorescence imaging of labile Cu(I) in Ctr1+/+ MEFs; type: cell-based, mouse; details: FL-TPA 5 μM, 45 min, λex 488 nm
Experimental: (A) Confocal fluorescence microscopy images of Ctr1^+/+ MEFs and Ctr1^−/− MEFs treated with solvent control, CuCl2 (100 or 300 μM) or BCS (500 μM) in complete medium for 8 h, washed with complete medium and PBS, incubated with FCP-1 (5 μM) in DPBS for 45 min, and then imaged with λex=458 nm. (B) Average cellular ratiometric emission ratios of FCP-1, Fgreen/Forange, as determined from experiments performed in triplicate. (C) Total cellular ^63Cu levels were determined by ICP-MS experiments (with normalization of different cell numbers by total cellular ^31P level). (D) Confocal fluorescence microscopy images of Ctr1^+/+ MEFs and Ctr1^−/− MEFs incubated with FL-TPA (5 μM) in DPBS for 45 min. The cells were then imaged with λex=488 nm. (E) Average cellular fluorescence intensity of FL-TPA, FFL-TPA, determined from experiments performed in triplicate with λex=488 nm. Error bars denote SD (n=3). *p<0.05, **p<0.01 and ***p<0.001.
Cell culture. Following cell cultures were grown: Human embryonic kidney (HEK 293T) cells were maintained in Dulbecco's Modified Eagle Medium (DMEM) supplemented with 10 vol % fetal bovine serum (FBS), 1 vol % GlutaMax (Gibco) and 1 vol % non-essential amino acids (NEAA, Gibco). Ctrl1^+/+ and Ctr1^−/− MEF cells were maintained in DMEM with 10 vol % FBS, 1 vol % non-essential amino acids, 1 vol % sodium pyruvate and 0.1 vol % 2-mercaptoethanol or DMEM supplemented with 10 vol % FBS and 1× Penicillin-Streptomycin. Human cervical epithelial carcinoma (HeLa) was maintained in DMEM medium supplemented with 1 vol % GlutaMAX and 10 vol % FBS. All cells were incubated in 5% CO2 humidified air and subcultured at 80% confluence.
Confocal fluorescence microscopy imaging. For confocal fluorescence imaging experiments of HEK293T, MEF Ctr1^+/+ and Ctr1^−/− and HeLa cells, the cells were plated on 8-well Lab Tek borosilicate chambered coverglass slides (Nunc), and allowed to grow to ca. 60% confluency before performing the cell imaging experiments. The confocal imaging was performed with a Zeiss laser scanning microscope 710 with 20× or 63× oil-immersion objective lens using Zen 2009 software (Carl Zeiss). FCP-1 was excited with 458 nm with an Ar laser, and the emissions were collected using a META detector between 465 and 541 nm (Fgreen), and between 559 and 710 nm (Forange). DRAQ-5 was excited with a 633 nm He Ne laser, and its emission was collected using a META detector between 661 and 759 nm. Image analysis was performed using ImageJ, with ratiometric images generated by the Ratio Plus plugin of ImageJ. For quantification, a threshold value was set as background and the average intensity of the whole image was measured by ImageJ. All experiments were performed in triplicate, and statistical analyses were performed with a two-tailed Student's t-test (MS excel).
Having established that FCP-1 is sensitive to endogenous pools of labile Cu(I) under basal conditions and can respond to changes in labile Cu(I) pools upon pharmacological copper supplementation and/or depletion, the application of FCP-1 to visualize alterations in endogenous labile Cu(I) pools through genetic manipulation was explored. To this end, comparative FCP-1 imaging was performed in mouse embryonic fibroblast cells that are either Cu-replete (Ctr1^+/+ MEFs) or Cu-deficient (Ctr1^−/− MEFs) through knockout of the high-affinity copper transporter CTR1 (64-66).
Complementary ICP-MS measurements confirm that total copper levels in Ctr1^−/− MEFs are lower than Ctr1^+/+ MEFs (FIG. 12C). […]

Molecule	absorption maxima ([1]; PBS buffer containing glutathione (2 mM) and PEG-400 (40%, v/v))	detection of changes in labile copper with exogenous copper addition [2]	ability to distinguish basal labile Cu(I) levels in Ctr1+/+ and Ctr1−/− MEFs [3]	absorption at 458 nm ([1]; 5 μM in PBS, 2 mM GSH, 40 vol % PEG-400)
COC(=O)c1ccccc1-c1c2ccc(=O)cc-2oc2cc(OCc3cccc(CN(Cc4ccccn4)Cc4ccccn4)n3)ccc12 [FL-TPA]	460 nm and 489 nm	able to detect changes in labile copper	unable to distinguish differences	–
N-[9-(2-carboxyphenyl)-6-(1-piperazinyl)-3H-xanthen-3-ylidene]-N-ethyl-ethanaminium [Pz-rhodamine, reference compound]	–	–	–	weak absorption

— US12241902B2, “Probes for detection of copper” (The Regents of the University of California, priority 2019, dated 2025)
